Test results reported in article PMC3612894 (Journal of medicinal chemistry, 2013).

Tested on: T. cruzi
Assay: T. cruzi in vitro inhibition assay
Type: cell-based, Trypanosoma cruzi
Conditions: host cells NIH 3T3

Clc1ccc(COc2cccc(Cn3ccnc3)c2)cc1 [Compound 4j, 1-(3-((4-chlorobenzyl)oxy)benzyl)-1H-imidazole]
selectivity over host cells: greater than 160 fold

Cc1cc(Oc2cccc(Cn3ccnc3)c2)cc(C)c1Cl [Compound 4c, 1-(3-(4-chloro-3,5-dimethylphenoxy)benzyl)-1H-imidazole]
selectivity over host cells: greater than 160 fold
